From BindingDB's records for PubMed 9454790 (University of Arizona, 1998)

Tests used:
[1] = biological target: T1, Muscarinic acetylcholine receptor M2 (Rattus norvegicus, UniProt P10980)
T1 sequence (P10980 whole entry): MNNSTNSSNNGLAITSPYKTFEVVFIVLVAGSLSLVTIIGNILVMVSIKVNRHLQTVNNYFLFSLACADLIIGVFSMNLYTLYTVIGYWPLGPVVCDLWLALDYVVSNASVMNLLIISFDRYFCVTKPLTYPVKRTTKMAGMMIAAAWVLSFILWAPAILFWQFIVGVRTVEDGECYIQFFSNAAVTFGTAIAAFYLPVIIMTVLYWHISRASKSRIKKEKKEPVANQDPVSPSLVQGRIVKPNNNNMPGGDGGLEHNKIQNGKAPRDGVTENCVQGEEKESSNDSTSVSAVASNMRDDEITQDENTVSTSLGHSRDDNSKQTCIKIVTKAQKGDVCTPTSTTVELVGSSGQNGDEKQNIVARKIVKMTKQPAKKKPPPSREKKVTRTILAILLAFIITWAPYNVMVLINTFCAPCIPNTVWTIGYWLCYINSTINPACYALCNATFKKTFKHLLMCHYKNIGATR

[2] = biological target: T2, Muscarinic acetylcholine receptor M2 (Homo sapiens, UniProt P08172)
T2 sequence (P08172 whole entry): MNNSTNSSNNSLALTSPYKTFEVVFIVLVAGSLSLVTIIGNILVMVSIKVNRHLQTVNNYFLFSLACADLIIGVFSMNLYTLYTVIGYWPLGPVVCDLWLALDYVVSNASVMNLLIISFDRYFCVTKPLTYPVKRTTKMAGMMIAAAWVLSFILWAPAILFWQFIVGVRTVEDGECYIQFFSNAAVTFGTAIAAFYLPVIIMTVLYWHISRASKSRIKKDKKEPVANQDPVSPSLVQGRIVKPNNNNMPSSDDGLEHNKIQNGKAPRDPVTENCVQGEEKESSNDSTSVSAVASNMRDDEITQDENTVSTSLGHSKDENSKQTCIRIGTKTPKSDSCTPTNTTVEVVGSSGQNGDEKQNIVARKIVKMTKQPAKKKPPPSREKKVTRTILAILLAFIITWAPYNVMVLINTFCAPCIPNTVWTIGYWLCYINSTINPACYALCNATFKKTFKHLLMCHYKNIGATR

Row | SMILES | Ki [1] [nM] | Ki [2] [nM]
1 | CC[N+](CC)(CC)CCOc1cccc(OCC[N+](CC)(CC)CC)c1OCC[N+](CC)(CC)CC | 2610 | 
2 | O=C1CCCN1CC#CCN1CCCC1 [1-[4-(2-oxo-pyrrolidin-1-yl)-but-2-ynyl]-pyrrolidinium] | 290 | 235
3 | C[C@H]1OC(=O)C2C[C@H]3CCCC[C@@H]3[C@@H](/C=C/[C@@H]3CCC[C@H](C)N3C)C21 (some centres not stated) [HIMBACINE] | 14 | 12
4 | C=C[C@@H]1CN2CC[C@H]1C[C@@H]2[C@H](O)c1ccnc2ccc(OC)cc12 [Quinidine] |  | 7.5
5 | C[N+]1(C)CCO[C@@](O)(c2ccc(-c3ccc([C@@]4(O)C[N+](C)(C)CCO4)cc3)cc2)C1 [CAS_312-45-8] |  | 11
6 | COc1cc2c3cc1Oc1cc(ccc1O)C[C@H]1c4c(cc(OC)c(O)c4Oc4ccc(cc4)C[C@@H]3N(C)CC2)CC[N+]1(C)C [CAS_57-94-3] |  | 97
7 | C[N+](C)(C)CCCCCCCCCC[N+](C)(C)C [Decamethonium Iodide] |  | 25
8 | CN(C)CCCN1c2ccccc2CCc2ccccc21 |  | 0.13
9 | CCN(CC)CC1CCCCN1CC(=O)N1c2ccccc2C(=O)Nc2cccnc21 (configuration not stated) [(AF-DX 116) 11-[2-(2-Diethylaminomethyl-piperidin-1-yl)-acetyl]-5,11-dihydro-benzo[e]pyrido[3,2-b][1,4]diazepin-6-one] | 50 | 67
